# US20180289692A1, “TLR MODULATORS AND METHODS OF USE” (CELGENE CORPORATION, priority 2015, published 2018)
# Oligonucleotides are written 5' to 3', each unit as a sugar letter and its base; * is a phosphorothioate linkage, no mark a phosphodiester; rarer units and linkages stand in square brackets, end groups in braces. Plain capitals give the bases only. d = 2'-deoxy (DNA); m = 2'-O-methyl
# Legend:
# [1] = tested on: human pDCs; assay: Surface ICOS-L and PD-L1 expression in CCR6+CD123+ human pDCs by FACS; format: cell-based; details: for increase of COMPOUND (I) induced ICOS-L expression by HCQ: primary human pDCs; for PD-L1 protein induction: 24 hrs, FIG. 2B
# Protocol: To evaluate surface ICOS-L, PD-L1 expression in the CCR6+CD123+ pDC cell subsets, PBMCs were incubated on ice in the presence of Fc-Block (BD Pharmingen) for 20 minutes, washed, and incubated with antibodies specific for surface molecules or isotype-matched control mAbs. APC-labeled anti-human ICOS-L mAb were purchased from BioLegend, PECY-7-labeled anti-human CCR6 mAb, FITC-labeled anti-human PD-L1 mAb and PerCP-Cy5.5 labeled anti-human CD123 mAb were purchased from BD Biosciences. The stained cells were then subjected to FACS (FACSCanto, BD Biosciences) using FACSDiva software. FACS analysis was performed using FlowJo software. Single, viable cells in the CCR6+CD123+ pDC gates were analyzed. The flow cytometric results are expressed as the percentage and MFI of ICOSL-, or PD-L1-expressing cells in each gate.
# pDCs were isolated and ICOS-L expression was analyzed as described in Example 2.
# [2] = target: T1, TLR9 (Homo sapiens, UniProt Q9NR96); assay: NF-κB reporter gene in recombinant TLR9-expressing HEK293 cells; format: cell-based; details: TLR9-expressing HEK293 cells, FIG. 16A
# T1 construct: expressed in transfected cells; host or cells: TLR9 expressing HEK293 reporter cells with a human NF-κB reporter construct
# T1 sequence (Q9NR96 26-1032): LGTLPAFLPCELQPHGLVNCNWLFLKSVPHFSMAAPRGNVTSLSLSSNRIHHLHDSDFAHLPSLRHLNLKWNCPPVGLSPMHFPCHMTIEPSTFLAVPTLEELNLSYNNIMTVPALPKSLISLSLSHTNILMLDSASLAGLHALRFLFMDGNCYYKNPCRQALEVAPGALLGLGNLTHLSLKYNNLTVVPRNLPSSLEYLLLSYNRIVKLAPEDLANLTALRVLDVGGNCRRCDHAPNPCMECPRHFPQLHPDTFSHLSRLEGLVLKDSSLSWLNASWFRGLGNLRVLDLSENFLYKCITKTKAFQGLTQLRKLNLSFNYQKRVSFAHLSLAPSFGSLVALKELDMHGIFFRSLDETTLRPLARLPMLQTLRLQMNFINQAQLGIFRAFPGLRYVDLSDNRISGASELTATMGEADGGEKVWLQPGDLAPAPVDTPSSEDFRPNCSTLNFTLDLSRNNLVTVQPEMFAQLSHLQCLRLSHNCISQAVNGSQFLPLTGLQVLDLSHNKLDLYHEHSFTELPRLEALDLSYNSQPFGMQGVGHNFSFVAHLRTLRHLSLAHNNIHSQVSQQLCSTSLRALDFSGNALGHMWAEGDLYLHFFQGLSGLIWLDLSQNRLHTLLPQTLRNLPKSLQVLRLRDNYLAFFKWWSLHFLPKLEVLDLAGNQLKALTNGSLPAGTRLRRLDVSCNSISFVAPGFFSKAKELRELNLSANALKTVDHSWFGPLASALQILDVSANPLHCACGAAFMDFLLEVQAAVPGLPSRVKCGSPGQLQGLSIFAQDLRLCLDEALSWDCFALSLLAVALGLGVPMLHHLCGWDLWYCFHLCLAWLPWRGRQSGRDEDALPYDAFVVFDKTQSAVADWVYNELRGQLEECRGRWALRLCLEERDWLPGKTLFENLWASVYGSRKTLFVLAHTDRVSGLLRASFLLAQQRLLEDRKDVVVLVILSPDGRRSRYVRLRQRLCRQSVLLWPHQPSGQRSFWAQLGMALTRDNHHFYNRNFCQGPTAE
# Protocol: FIGS. 16A-B show results of experiments in which recombinant TLR-expressing HEK293 cells carrying an NF-κB reporter gene were incubated with COMPOUND(I), ODN150, ODN2006, or ODN7040 for 48 hours at the indicated concentrations.
# [3] = tested on: human PBMCs; assay: Cytokine production by human PBMCs treated with ODNs, MagPix Multi-Plex; format: cell-based; details: for IFN-γ / IL-1β / IL-6 / IL-10 / IL-12p40 / IP10 / TNF-α: human PBMC, 24 hrs
# Protocol: PBMC from 3 donors were isolated from Buffy Coat (Blood Center of NY). The cells were washed with PBS and re-suspended in RPMI-1640 Media with 5% Human AB Serum, 1% Pen/Strep and 2 mM L-glutamine. The cells were then plated in 96-well plates at 250,000 cells/well. […] After 24 hrs, the supernatant was harvested and tested for cytokine production using MagPix Multi-Plex Technology. The following cytokines were tested: IL-6, IL-10, IL-12p40, IFN-α, IFN-γ, IP-10, IL-1β and TNF-α.
# [4] = tested on: canonical NF-κB promoter reporter; assay: Mouse Raw Blue Reporter Cells, SEAP reporter driven by canonical NF-κB promoter (FIG. 11); format: cell-based; details: mouse macrophages, 24 hrs; for activation of canonical NF-κB reporter: SEAP, COMPOUND (I) up to 10 μM
# Protocol: Mouse Raw Blue Reporter Cells (Invivogen), containing a secreted embryonic alkaline phosphatase (SEAP) reporter gene driven by canonical NF-κB promoter, were plated in 96-well plates at 50,000 cells/well in DMEM Media supplemented with 10% FBS, 2 mM L-glutamine, 1% Pen/Strep, […] Normacin. […] The supernatant was harvested and tested for SEAP production by measuring OD at 630 nm.
# [5] = tested on: human pDCs; assay: Intracellular IL-10, TGF-β1 and IDO expression in CCR6+CD123+ human pDCs by FACS; format: cell-based; details: 24 hrs, FIG. 2A
# Excerpt: To evaluate intracellular IL-10, TGFβ 1 and IDO expression in human pDCs, the cells were first stained with PECY-7-labeled anti-human CCR6 mAb (BD Biosciences), PerCP-Cy5.5 labeled anti-human CD123 mAb (BD Biosciences). Stained cells were then fixed and permeabilized using a Cytofix/Cytoperm kit (BD Biosciences) according to the manufacturer's instructions and stained with PE-labeled anti-human IDO (Biolegend), APC-labeled anti-human IL-10 mAb and FITC-labeled anti-human TGF-β1 (BD Biosciences), or isotype-matched control mAbs. The stained cells were acquired by FACSCanto using the FACSDiva software. FACS analysis was performed using FlowJo software. Single, viable cells in the CCR6+CD123+ pDC gates were analyzed. The flow cytometric results are expressed as the percentage and MFI of IL-10-, TGF-β1- or IDO-expressing cells in each gate. Results are expressed as the mean±SEM of cells quantified.
# IL10 was alternatively measured in cellular supernatants by ELISA using standard protocols.
# [6] = tested on: human PBMCs; assay: IL-1β secretion from human PBMCs by ELISA (inflammasome activation); format: cell-based; details: 24 hours, FIG. 15
# [7] = tested on: canonical NF-κB promoter reporter; assay: Canonical NF-κB promoter reporter construct in RAW264.7 macrophage cells (FIG. 10); format: cell-based, mouse; details: 24 hrs
# Protocol: Mouse RAW264.7 macrophage cells containing a reporter construct driven by a canonical NF-κB promoter were plated in 96-well plates at 50,000 cells/well. […] The supernatant was harvested and tested for optical density.
# [8] = tested on: mouse macrophages; assay: TNFα and IL-10 production in mouse macrophages (Raw Blue cells), MagPix; format: cell-based; details: 24 hrs
# Protocol: Mouse Raw Blue Reporter Cells (Invivogen) were plated in 96-well plates at 50,000 cells/well in DMEM Media supplemented with 10% FBS, 2 mM L-glutamine, 1% Pen/Strep, […] Normacin. […] The supernatant was harvested and tested for TNFα and IL-10 production using MagPix Multi-Plex technology.
Molecule,IFN-γ ([3]; high-dose ODN 10 μM) [pg/mL],IL-1β ([3]; high-dose ODN 10 μM) [pg/mL],IL-6 ([3]; high-dose ODN 10 μM) [fold change],IL-10 ([3]; high-dose ODN 10 μM) [fold change],IL-12p40 ([3]; high-dose ODN 10 μM) [pg/mL],IP10 ([3]; high-dose ODN 10 μM) [fold change],TNF-α ([3]; high-dose ODN 10 μM) [fold change],IFN-γ ([3]; low-dose ODN 0.1 μM) [pg/mL],IL-1β ([3]; low-dose ODN 0.1 μM) [pg/mL],IL-6 ([3]; low-dose ODN 0.1 μM) [fold change],IL-10 ([3]; low-dose ODN 0.1 μM) [fold change],IL-12p40 ([3]; low-dose ODN 0.1 μM) [pg/mL],IP10 ([3]; low-dose ODN 0.1 μM) [fold change],TNF-α ([3]; low-dose ODN 0.1 μM) [fold change],activation of canonical NF-κB reporter [4],TGF-β1 protein induction [5],PD-L1 protein induction ([1]; human pDCs),further results
"CCN(CCO)CCCC(C)Nc1ccnc2cc(Cl)ccc12 (stereo not shown) [HCQ, hydroxychloroquine]",–,–,–,–,–,–,–,–,–,–,–,–,–,–,–,–,–,"increase of COMPOUND (I) induced ICOS-L expression by HCQ ([1]; HCQ 10 μM + COMPOUND (I) 1 μM, FIG. 6A): 7.3 fold; increase of COMPOUND (I) induced ICOS-L expression by HCQ ([1]; HCQ 10 μM + COMPOUND (I) 1 μM, FIG. 6B): 2.0 fold; increase of COMPOUND (I) induced ICOS-L expression by HCQ ([1]; HCQ 10 μM + COMPOUND (I) 10 μM, FIG. 6A): 7.1 fold; increase of COMPOUND (I) induced ICOS-L expression by HCQ ([1]; HCQ 10 μM + COMPOUND (I) 10 μM, FIG. 6B): 1.9 fold; ICOS-L expression, agent alone ([1]; human pDCs, COMPOUND (I) 1 μM and 10 μM by itself, HCQ 10 μM alone): did not induce measurable levels; effect on COMPOUND (I) activity on NF-κB reporter gene [2]: inhibited"
"ODN150C: 5′-G*G*A*ACAGTTAGTCCATa*G*G*C-3′, PO except * = PS; control lacking CG-dinucleotide sequences (DNA GGAACAGTTAGTCCATGGC; listed as DNA, chemistry not fully specified)",0.1,0.3,1.4,1,0,1.5,1.4,0.1,0.2,1.2,1,0,1,1.2,did not activate,–,–,–
"ODN301C: 5′-GTAGCCCCATCACCCAGCAGC-3′, fully PS, GC-containing (DNA dG*dT*dA*dG*dC*dC*dC*dC*dA*dT*dC*dA*dC*dC*dC*dA*dG*dC*dA*dG*dC)",0,1.9,3.3,1,0.8,0.25,2.8,0,0.1,1.3,1,0,1.1,1.1,–,can induce,can induce,"IFNα secretion from PBMCs ([3]; any tested concentration between 0.01 μM and 10 μM, FIG. 25): not found to induce; IL-1β induction [6]: induce"
"ODN302: 5′-GTCGCTCTTCTCCTCCGCCAG-3′, fully PS; scrambled (non-SMAD7 AON) control sequence with two CG sequences (DNA dG*dT*dC*dG*dC*dT*dC*dT*dT*dC*dT*dC*dC*dT*dC*dC*dG*dC*dC*dA*dG)",9.7,3.9,41,1.5,5.2,4.4,9.3,1.5,0.2,19,1.5,0.7,13.9,2.4,–,can induce,can induce,activation of the NF-κB construct ([7]; 0.1-100 μM): Moderate activation; ODN concentration at which activation of the NF-κB construct was observed [7]: about 1 μM
ODN1826,–,–,–,–,–,–,–,–,–,–,–,–,–,–,potent activator,–,–,"concentration from which the NF-κB reporter is activated [4]: ≤ 0.01 µM; TNFα protein expression ([8]; FIG. 12, COMPOUND (I) up to 10 μM): induce; IL-10 protein expression ([8]; FIG. 13, COMPOUND (I) up to 10 μM): induce"
"ODN7040C: 5′-CTGCCAAGTTCACCTGCA*C*C*-3′, PO; * = 2′OMe; control lacking CG-dinucleotide sequences (DNA dCdTdGdCdCdAdAdGdTdTdCdAdCdCdTdGdCmAmCmC)",0.2,0.5,2.1,1,0.1,1.4,1.4,0.2,0.6,1.2,1,0.1,1.1,1.1,did not activate,–,–,–
